In general, IC50 refers to the point on the concentration scale where inhibition reaches its midpoint. High values mean weaker potency, low ones greater potency.

Experimental findings from PMC5971303, “α-Amylase and α-Glucosidase Inhibitory Activities of Chemical Constituents from Wedelia chinensis (Osbeck.) Merr. Leaves” (Journal of Analytical Methods in Chemistry, 2018) are described below.

One assay relates to yeast α-glucosidase. Briefly: Assay for α-glucosidase inhibition (p-nitrophenyl-α-D-glucopyranoside substrate, absorbance at 405 nm). Format: biochemical. As to conditions: for α-glucosidase inhibitory effect (in words): compared with acarbose; for α-Glucosidase IC50 ± SD: tested three times, mean ± SD. As to the method: The yeast α-glucosidase (G0660, Sigma-Aldrich) inhibition assay was performed using the substrate p-nitrophenyl-α-D-glucopyranoside according to the previously described method. […] After 5 min preincubation, 5 mM p-nitrophenyl-α-D-glucopyranoside solution ([…]) was added, and the solution was incubated at 37°C for 30 min. […]. Each concentration of samples was carried out in triplicate. The absorbance of released 4-nitrophenol was measured at 405 nm by using a microplate reader (xMark, Bio-Rad, USA). […] The inhibitory activity was calculated by the following equation: α-glucosidase inhibitory activity (%) = (1–A/A0) × 100, where A is the absorbance of the sample and A0 is the absorbance of the blank, respectively. The IC50 value was calculated by GraphPad Prism.
(§1) Inhibition of α-glucosidase is one very effective way of delaying glucose absorption and lowering the postprandial blood glucose level, which can potentially suppress the progression of DM.

Assay [1] addresses T1, porcine pancreas α-amylase (Sus scrofa, UniProt P00690).
T1 construct: purchased Sigma-Aldrich A3176
T1 sequence (P00690 16-511): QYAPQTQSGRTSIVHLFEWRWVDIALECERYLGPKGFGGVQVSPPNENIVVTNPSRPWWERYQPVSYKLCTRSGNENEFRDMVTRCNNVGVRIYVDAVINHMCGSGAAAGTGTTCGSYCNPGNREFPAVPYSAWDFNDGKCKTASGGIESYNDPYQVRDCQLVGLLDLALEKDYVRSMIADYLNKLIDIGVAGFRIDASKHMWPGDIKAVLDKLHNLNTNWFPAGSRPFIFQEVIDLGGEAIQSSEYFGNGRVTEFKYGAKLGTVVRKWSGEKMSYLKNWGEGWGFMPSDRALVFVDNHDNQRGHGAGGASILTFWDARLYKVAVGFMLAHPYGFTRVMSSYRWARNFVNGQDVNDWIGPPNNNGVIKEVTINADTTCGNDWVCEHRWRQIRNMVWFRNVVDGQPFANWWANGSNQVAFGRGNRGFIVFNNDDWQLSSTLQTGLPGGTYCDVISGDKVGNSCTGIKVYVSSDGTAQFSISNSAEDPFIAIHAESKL
Briefly: Assay for α-amylase inhibition (potato starch substrate, iodine, absorbance at 650 nm). Format: biochemical. As to conditions: for α-amylase inhibitory effect (in words): compared with acarbose; for IC50: porcine pancreas α-amylase, tested three times, mean ± SD. As to the method:
The substrate was prepared by boiling 100 mg potato starch in 5 mL phosphate buffer (pH 7.0) for 5 min and then cooling to room temperature. The sample ([…] dissolved in DMSO) and substrate ([…]) were mixed in […] of 0.1 M phosphate buffer (pH 7.0). After 5 min preincubation, 5 mg/mL α-amylase solution (20 mL) was added, and the solution was incubated at 37°C for 15 min. The reaction was stopped by adding […] of 1 M·HCl, and then, […] of iodine solution was added. The absorbances were measured at 650 nm by a microplate reader. […] The inhibitory activity was calculated by the following equation: α-amylase inhibitory activity (%) = (1–A/A0) × 100, where A is the absorbance of the sample and A0 is the absorbance of the blank, respectively. The IC50 value was calculated by GraphPad Prism.
as §1

In the case of `CC(O)C=CC12OC1(C)C(O)C(OS(=O)(=O)O)CC2(C)C` [Compound 1, (3S,4R,5R,6S,9S,7E)-megastigman-5,6-epoxy-7-ene,4,9-diol,3-sulfonic acid], the “α-glucosidase inhibitory effect (in words)” value with yeast α-glucosidase is recorded as “moderate”. For the same compound, on yeast α-glucosidase (yeast α-glucosidase), the “α-Glucosidase IC50 ± SD” value is 915.6 ± 36.5 µg/mL. In assay [1], the “α-amylase inhibitory effect (in words)” value was “moderate” and the half-maximal inhibitory concentration (IC50) is 1350 µM.

As to `COc1cc(-c2cc(=O)c3c(O)c(OC)c(O)cc3o2)ccc1O` [Compound 7, jaceosidin], the “α-Glucosidase IC50 ± SD” value at yeast α-glucosidase (yeast α-glucosidase) worked out at 785.9 ± 12.7 µg/mL. In addition, in assay [1], inhibition was half-maximal at 342 µM (IC50).

`C[C@@H]1CC[C@]2(C(=O)O)CC[C@]3(C)C(=CC[C@@H]4[C@@]5(C)CCC(=O)C(C)(C)[C@@H]5CC[C@]43C)[C@@H]2[C@]1(C)O` [Compound 8, pomonic acid]: in the assay on yeast α-glucosidase, the “α-glucosidase inhibitory effect (in words)” value is listed as “moderate”. The “α-Glucosidase inhibition (symbol in IC50 column)” value with yeast α-glucosidase (yeast α-glucosidase, dash = no inhibition (less than 10% inhibition)) was “— ((‒): no inhibition (less than 10% inhibition))”. Moreover, in assay [1], the “α-amylase inhibitory effect (in words)” value is listed as “moderate” and the IC50 was 894 µM.

For `C[C@@H]1CC[C@]2(C(=O)O)CC[C@]3(C)C(=CC[C@@H]4[C@@]5(C)CC[C@H](O)C(C)(C)[C@@H]5CC[C@]43C)[C@@H]2[C@]1(C)O` [Compound 9, pomolic acid], the “α-glucosidase inhibitory effect (in words)” value with yeast α-glucosidase was “moderate”. At yeast α-glucosidase (yeast α-glucosidase), the “α-Glucosidase IC50 ± SD” value is 821.4 ± 55.2 µg/mL. In addition, in assay [1], the “α-amylase inhibitory effect (in words)” value is listed as “moderate” and the half-maximal inhibitory concentration (IC50) was 837 µM.
